Measured values: PMC4978154, “Phase I metabolites of mephedrone display biological activity as substrates at monoamine transporters” (British Journal of Pharmacology, 2016)

Experiments:
[1] = biological target: T1, hSERT (Homo sapiens, UniProt P31645); experiment: Transporter release (superfusion) assay in HEK293 cells expressing hSERT; assay type: cell-based; conditions: test drug 10 μM, monensin 10 μM; post hoc Bonferroni
T1 construct: yellow fluorescent protein (YFP); expressed in transfected cells
T1 sequence (P31645 whole entry, the tested form may be a part): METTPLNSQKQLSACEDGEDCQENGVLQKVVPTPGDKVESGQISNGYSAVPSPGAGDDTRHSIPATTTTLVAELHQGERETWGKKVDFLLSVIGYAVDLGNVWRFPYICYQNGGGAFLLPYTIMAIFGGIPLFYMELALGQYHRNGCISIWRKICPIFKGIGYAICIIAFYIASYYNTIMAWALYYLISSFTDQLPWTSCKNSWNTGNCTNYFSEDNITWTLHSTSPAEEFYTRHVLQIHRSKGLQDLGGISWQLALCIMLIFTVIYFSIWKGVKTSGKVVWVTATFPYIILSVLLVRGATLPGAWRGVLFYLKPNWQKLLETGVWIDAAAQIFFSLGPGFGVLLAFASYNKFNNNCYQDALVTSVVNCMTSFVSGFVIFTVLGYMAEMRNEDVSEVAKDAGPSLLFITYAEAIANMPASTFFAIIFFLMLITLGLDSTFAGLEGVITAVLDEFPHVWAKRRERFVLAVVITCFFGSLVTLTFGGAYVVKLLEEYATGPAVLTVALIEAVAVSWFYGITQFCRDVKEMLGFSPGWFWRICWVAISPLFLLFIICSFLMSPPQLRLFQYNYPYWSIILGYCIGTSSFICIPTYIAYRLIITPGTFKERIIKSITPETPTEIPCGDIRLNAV
Method: (§1) The generation of HEK293 cells stably expressing the human isoforms of DAT (hDAT) and NET (hNET) was carried out as described previously (Scholze et al., 2002). For SERT, the human isoform (hSERT) was cloned in frame with yellow fluorescent protein (Schmid et al., 2001). The generation of a stable cell line was performed as described by Hilber and colleagues (Hilber et al., 2005). HEK293 cells were maintained in humidified atmosphere (5% CO2, 37°C) in DMEM, supplemented with 10% heat‐inactivated FBS and penicillin (100 u 100 mL^−1) and streptomycin (100 μg 100 mL^−1). Selection pressure was maintained by adding geneticin (50 μg·mL^−1) to the cell culture media.
Superfusion experiments were performed as described previously (Scholze et al., 2002). […] Finally, the cells were lysed in 1% SDS to determine the total radioactivity. Radioactivity per fraction was assessed by a liquid scintillation counter and expressed as fractional release, that is, the percentage of released ^3H in relation to total ^3H present at the beginning of the fraction (Sitte et al., 2000). For analysis, release was expressed as AUC.
Calculations were performed using Microsoft Excel® 2010 (Microsoft Corporation, Redmond, WA, USA) and GRAPHPAD PRISM 5.0. […] IC50 values for uptake inhibition and EC50 values for release were determined by nonlinear regression fits. […]

[2] = biological target: T2, hDAT (Homo sapiens, UniProt Q01959); experiment: Transporter release (superfusion) assay in HEK293 cells expressing hDAT; assay type: cell-based; conditions: test drug 10 μM, monensin 10 μM; post hoc Bonferroni
T2 construct: expressed in transfected cells
T2 sequence (Q01959 whole entry, the tested form may be a part): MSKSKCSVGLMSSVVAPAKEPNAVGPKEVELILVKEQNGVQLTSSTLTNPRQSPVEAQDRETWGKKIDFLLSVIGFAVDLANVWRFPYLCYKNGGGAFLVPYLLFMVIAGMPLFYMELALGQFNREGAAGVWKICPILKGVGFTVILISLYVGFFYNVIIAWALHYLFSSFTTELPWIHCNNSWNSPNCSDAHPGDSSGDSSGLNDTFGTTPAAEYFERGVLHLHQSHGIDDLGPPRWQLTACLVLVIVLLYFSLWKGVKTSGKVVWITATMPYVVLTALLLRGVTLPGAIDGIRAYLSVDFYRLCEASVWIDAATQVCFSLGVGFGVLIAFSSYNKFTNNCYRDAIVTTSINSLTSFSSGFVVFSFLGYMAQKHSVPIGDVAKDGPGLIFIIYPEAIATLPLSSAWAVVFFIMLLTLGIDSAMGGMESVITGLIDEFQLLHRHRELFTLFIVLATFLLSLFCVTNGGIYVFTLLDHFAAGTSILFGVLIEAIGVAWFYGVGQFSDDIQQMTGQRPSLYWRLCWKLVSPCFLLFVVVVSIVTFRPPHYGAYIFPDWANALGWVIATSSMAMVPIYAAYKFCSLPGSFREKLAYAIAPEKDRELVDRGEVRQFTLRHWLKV
Method: as §1
Superfusion experiments were performed as described previously (Scholze et al., 2002). Briefly, HEK293 cells expressing the desired transporter were seeded at a density of 40 000 cells per well onto poly‐D‐lysine‐coated 5 mm glass cover slips in 96‐well plates 24 h prior to the experiment. Cells were preloaded with [^3H]‐MPP^+ (0.1 μM, hDAT and hNET) or [^3H]‐5‐HT (0.4 μM, hSERT) for 20 min at 37°C in a final volume of 100 μL per well. Subsequently, glass coverslips were transferred into small superfusion chambers (volume of 200 μL) and superfused with KHB at 25°C with a superfusion rate of 0.7 mL·min^−1 for 40 min to establish a stable basal efflux. After washout, the collection of 2‐min fractions was initiated. After the first three basal fractions, monensin (10 μM) or solvent was added for four fractions. Consequently, the cells were challenged with test drugs (10 μM) for five fractions in the presence or absence of monensin. Finally, the cells were lysed in 1% SDS to determine the total radioactivity. Radioactivity per fraction was assessed by a liquid scintillation counter and expressed as fractional release, that is, the percentage of released ^3H in relation to total ^3H present at the beginning of the fraction (Sitte et al., 2000). For analysis, release was expressed as AUC.
Calculations were performed using Microsoft Excel® 2010 (Microsoft Corporation, Redmond, WA, USA) and GRAPHPAD PRISM 5.0. (GraphPad Software Inc., La Jolla, CA, USA). IC50 values for uptake inhibition and EC50 values for release were determined by nonlinear regression fits. Release data expressed as AUC were analysed by one‐way ANOVA followed by Bonferroni's multiple comparison test. Microdialysis and locomotor data were analysed by two‐way ANOVA (drug treatment × time) followed by Bonferroni's test. The effect of monensin treatment on basal efflux of tritiated substrate was analysed with the Mann–Whitney test. P values less than 0.05 (i.e. P < 0.05) were considered significant. The data and statistical analysis comply with the recommendations on experimental design and analysis in pharmacology (Curtis et al., 2015).
Data from uptake inhibition assays cannot distinguish whether test drugs act as non‐transported inhibitors or transportable substrates, which evoke release (Scholze et al., 2000; Sitte et al., 2000; Baumann et al., 2013). Therefore, mephedrone and its metabolites were tested in release assays to further explore their interaction with transporters. The release assays were performed with the same transporter‐expressing HEK293 cell lines described above and used a superfusion system (Sitte et al., 2000). As described previously, efflux of preloaded [^3H]‐MPP^+ or [^3H]‐5‐HT was monitored in the presence or absence of monensin (10 μM) (Scholze et al., 2000). […]

[3] = forensic traffic case, ref Pedersen et al., 2013, cited from earlier work; for blood concentration, first case: parent drug:metabolite 28:2; for blood concentration, second case: parent drug:metabolite 29:9

SMILES | enhancement by monensin of drug-evoked [3H]-5-HT release at hSERT (AUC) [1] | enhancement by monensin of drug-evoked [3H]-MPP+ release at hDAT (AUC) [2] | blood concentration, first case [3] [µg/kg] | blood concentration, second case [3] [µg/kg]
CNC(C)C(=O)c1ccc(C)cc1.Cl (centres unmarked) [Mephedrone, 2‐Methylamino‐1‐(p‐tolyl)propan‐1‐one hydrochloride] | significant | significant | 28 | 29
Cc1ccc(C(=O)C(C)N)cc1.Cl (centres unmarked) [Nor‐mephedrone, 2‐amino‐1‐(p‐tolyl)propan‐1‐one hydrochloride] | – | significant | – | –
CNC(C)C(=O)c1ccc(CO)cc1.Cl (centres unmarked) [4‐OH‐mephedrone, 1‐(4‐(hydroxymethyl)phenyl)‐2‐(methylamino)propan‐1‐one hydrochloride] | – | significant | 2 | 9
